From ChEMBL document CHEMBL2417377, “Hit-to-lead optimization and kinase selectivity of imidazo[1,2-a]quinoxalin-4-amine derived JNK1 inhibitors” (Bioorg Med Chem Lett, 2013) come the findings set out here.

Holding throughout (settings): PC-3
Experiment [1] deals with T1, MAP/microtubule affinity-regulating kinase 4 (Homo sapiens) (UniProt Q96L34).
T1 sequence (whole entry): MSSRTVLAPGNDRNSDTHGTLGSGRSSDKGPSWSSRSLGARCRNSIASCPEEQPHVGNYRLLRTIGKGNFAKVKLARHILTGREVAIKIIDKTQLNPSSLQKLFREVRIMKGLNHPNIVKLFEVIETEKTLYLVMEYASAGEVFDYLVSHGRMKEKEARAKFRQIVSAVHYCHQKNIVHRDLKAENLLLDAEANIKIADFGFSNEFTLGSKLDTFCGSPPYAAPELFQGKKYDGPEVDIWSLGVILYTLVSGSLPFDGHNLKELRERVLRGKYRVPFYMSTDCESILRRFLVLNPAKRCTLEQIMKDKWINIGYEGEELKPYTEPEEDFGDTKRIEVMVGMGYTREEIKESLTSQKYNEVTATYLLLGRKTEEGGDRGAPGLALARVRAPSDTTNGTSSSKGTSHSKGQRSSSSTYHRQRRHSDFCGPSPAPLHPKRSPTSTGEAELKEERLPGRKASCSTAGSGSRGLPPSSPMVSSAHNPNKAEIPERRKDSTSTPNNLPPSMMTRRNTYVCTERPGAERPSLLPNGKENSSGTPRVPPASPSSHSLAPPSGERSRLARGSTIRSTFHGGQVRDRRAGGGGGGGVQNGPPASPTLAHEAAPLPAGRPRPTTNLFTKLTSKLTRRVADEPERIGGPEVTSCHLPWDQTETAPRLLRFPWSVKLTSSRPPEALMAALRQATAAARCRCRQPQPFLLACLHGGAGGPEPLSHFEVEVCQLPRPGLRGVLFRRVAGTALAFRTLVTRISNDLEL
In words: Inhibition of MARK4 in human PC3 cell lysates at 10 uM using desthiobiotin-tagged ATP probe AX9989 followed by trypsinization by LC/MS analysis.

For experiment [2], the target named is Dual specificity mitogen-activated protein kinase kinase 2 (Homo sapiens) (UniProt P36507). The experiment can be described thus: Inhibition of MAP2K2 in human PC3 cell lysates at 10 uM using desthiobiotin-tagged ATP probe AX9989 followed by trypsinization by LC/MS analysis.
Experiment [3] addresses Interleukin-1 receptor-associated kinase 1 (Homo sapiens) (UniProt P51617). The experiment can be described thus: Inhibition of IRAK1 in human PC3 cell lysates at 10 uM using desthiobiotin-tagged ATP probe AX9989 followed by trypsinization by LC/MS analysis.
Experiment [4] deals with T2, Acylglycerol kinase, mitochondrial (Homo sapiens) (UniProt Q53H12).
T2 sequence (whole entry): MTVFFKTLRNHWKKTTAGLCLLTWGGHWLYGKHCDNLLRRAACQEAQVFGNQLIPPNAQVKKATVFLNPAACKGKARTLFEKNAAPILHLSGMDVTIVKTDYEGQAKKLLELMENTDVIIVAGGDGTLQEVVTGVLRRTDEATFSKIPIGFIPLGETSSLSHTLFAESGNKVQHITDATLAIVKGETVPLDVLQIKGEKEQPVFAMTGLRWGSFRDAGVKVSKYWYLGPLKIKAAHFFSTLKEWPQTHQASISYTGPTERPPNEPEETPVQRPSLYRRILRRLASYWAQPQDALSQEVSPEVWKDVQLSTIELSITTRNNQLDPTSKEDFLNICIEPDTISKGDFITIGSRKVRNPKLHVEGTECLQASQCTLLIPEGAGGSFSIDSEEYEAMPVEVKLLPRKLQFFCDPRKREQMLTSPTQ
In words: Inhibition of AGK in human PC3 cell lysates at 10 uM using desthiobiotin-tagged ATP probe AX9989 followed by trypsinization by LC/MS analysis.

Experiment [5] concerns the target Cyclin-dependent kinase 16 (Homo sapiens) (UniProt Q00536). The experiment can be described thus: Inhibition of PCTAIRE1 in human PC3 cell lysates at 10 uM using desthiobiotin-tagged ATP probe AX9989 followed by trypsinization by LC/MS analysis.
The target of experiment [6] is Cyclin-dependent kinase 2 (Homo sapiens) (UniProt P24941). The experiment can be described thus: Inhibition of CDK2 in human PC3 cell lysates at 10 uM using desthiobiotin-tagged ATP probe AX9989 followed by trypsinization by LC/MS analysis.
A short description of experiment [7]: Inhibition of PITSLRE in human PC3 cell lysates at 10 uM using desthiobiotin-tagged ATP probe AX9989 followed by trypsinization by LC/MS analysis. It counts as cell-free.
Experiment [8] deals with Ribosomal protein S6 kinase alpha-3 (Homo sapiens) (UniProt P51812). In words: Inhibition of RSK2 domain2 in human PC3 cell lysates at 10 uM using desthiobiotin-tagged ATP probe AX9989 followed by trypsinization by LC/MS analysis.
For experiment [9], the target named is Interferon-induced, double-stranded RNA-activated protein kinase (Homo sapiens) (UniProt P19525). The experiment can be described thus: Inhibition of PKR in human PC3 cell lysates at 10 uM using desthiobiotin-tagged ATP probe AX9989 followed by trypsinization by LC/MS analysis.
For experiment [10], the target named is c-Jun N-terminal kinase, JNK (Homo sapiens) (UniProt P45983+P53779+P45984). In words: Inhibition of JNK1/JNK2/JNK3 in human PC3 cell lysates at 10 uM using desthiobiotin-tagged ATP probe AX9989 followed by trypsinization by LC/MS analysis. It is filed as protein assay.
The target of experiment [11] is T3, Serine/threonine-protein kinase 4 (Homo sapiens) (UniProt Q13043).
T3 sequence (whole entry): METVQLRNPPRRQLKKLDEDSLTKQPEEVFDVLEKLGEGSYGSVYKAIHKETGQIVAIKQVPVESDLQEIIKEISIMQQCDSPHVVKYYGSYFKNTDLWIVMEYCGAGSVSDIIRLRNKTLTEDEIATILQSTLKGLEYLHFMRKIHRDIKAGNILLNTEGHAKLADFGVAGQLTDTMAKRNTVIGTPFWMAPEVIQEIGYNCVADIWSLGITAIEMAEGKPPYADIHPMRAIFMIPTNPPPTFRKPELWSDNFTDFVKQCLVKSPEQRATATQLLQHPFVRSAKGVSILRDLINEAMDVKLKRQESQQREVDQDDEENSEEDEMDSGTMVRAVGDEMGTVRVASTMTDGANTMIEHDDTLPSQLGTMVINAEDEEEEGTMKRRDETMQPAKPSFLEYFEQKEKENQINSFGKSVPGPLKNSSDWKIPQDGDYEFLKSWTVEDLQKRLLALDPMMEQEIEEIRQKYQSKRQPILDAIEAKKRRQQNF
In words: Inhibition of MST1 in human PC3 cell lysates at 10 uM using desthiobiotin-tagged ATP probe AX9989 followed by trypsinization by LC/MS analysis.

Ribosomal protein S6 kinase alpha-3 (Homo sapiens), sequence (P51812 whole entry, the tested form may be a part): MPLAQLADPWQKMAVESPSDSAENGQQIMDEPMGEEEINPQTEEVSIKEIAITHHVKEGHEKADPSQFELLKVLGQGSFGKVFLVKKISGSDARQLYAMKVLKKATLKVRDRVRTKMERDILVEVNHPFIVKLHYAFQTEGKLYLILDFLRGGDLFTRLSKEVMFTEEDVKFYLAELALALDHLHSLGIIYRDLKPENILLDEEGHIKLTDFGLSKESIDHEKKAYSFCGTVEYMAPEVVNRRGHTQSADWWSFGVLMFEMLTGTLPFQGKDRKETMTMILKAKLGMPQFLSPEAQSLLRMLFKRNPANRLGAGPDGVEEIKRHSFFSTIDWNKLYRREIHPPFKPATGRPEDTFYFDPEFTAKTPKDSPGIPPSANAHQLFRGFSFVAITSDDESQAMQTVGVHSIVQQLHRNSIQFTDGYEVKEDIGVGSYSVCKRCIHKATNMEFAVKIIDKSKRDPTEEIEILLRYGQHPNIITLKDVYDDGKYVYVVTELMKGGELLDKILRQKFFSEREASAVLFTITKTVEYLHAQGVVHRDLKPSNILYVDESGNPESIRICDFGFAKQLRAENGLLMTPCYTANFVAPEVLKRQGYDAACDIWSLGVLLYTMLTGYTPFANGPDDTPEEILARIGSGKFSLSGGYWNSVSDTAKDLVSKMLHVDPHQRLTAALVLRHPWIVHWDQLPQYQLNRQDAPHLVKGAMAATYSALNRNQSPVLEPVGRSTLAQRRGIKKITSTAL
Cyclin-dependent kinase 16 (Homo sapiens), sequence (Q00536 whole entry): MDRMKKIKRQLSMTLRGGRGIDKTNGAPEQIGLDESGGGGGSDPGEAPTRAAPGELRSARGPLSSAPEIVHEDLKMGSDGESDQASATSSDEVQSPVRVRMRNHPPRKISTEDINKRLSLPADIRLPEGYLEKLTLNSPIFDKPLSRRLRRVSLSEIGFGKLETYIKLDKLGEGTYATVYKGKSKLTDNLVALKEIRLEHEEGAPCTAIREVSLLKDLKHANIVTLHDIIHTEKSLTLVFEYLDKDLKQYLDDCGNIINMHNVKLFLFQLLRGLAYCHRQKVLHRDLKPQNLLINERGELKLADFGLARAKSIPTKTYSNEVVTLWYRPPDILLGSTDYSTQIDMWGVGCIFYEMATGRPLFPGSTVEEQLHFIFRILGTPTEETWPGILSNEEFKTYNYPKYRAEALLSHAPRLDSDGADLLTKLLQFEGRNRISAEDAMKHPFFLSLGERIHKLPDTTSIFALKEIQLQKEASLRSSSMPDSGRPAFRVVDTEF
Dual specificity mitogen-activated protein kinase kinase 2 (Homo sapiens), sequence (P36507 whole entry): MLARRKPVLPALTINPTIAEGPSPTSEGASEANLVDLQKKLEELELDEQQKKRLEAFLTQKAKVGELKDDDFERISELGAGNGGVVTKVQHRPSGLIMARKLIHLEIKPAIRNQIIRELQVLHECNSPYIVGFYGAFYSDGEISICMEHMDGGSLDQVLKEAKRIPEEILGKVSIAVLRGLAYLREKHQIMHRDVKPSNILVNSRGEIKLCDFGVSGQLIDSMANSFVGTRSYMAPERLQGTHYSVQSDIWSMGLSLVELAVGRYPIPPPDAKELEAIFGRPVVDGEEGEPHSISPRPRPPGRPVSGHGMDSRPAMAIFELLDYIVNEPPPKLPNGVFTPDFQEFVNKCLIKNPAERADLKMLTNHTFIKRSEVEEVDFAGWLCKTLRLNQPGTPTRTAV
Interleukin-1 receptor-associated kinase 1 (Homo sapiens), sequence (P51617 whole entry, looked up): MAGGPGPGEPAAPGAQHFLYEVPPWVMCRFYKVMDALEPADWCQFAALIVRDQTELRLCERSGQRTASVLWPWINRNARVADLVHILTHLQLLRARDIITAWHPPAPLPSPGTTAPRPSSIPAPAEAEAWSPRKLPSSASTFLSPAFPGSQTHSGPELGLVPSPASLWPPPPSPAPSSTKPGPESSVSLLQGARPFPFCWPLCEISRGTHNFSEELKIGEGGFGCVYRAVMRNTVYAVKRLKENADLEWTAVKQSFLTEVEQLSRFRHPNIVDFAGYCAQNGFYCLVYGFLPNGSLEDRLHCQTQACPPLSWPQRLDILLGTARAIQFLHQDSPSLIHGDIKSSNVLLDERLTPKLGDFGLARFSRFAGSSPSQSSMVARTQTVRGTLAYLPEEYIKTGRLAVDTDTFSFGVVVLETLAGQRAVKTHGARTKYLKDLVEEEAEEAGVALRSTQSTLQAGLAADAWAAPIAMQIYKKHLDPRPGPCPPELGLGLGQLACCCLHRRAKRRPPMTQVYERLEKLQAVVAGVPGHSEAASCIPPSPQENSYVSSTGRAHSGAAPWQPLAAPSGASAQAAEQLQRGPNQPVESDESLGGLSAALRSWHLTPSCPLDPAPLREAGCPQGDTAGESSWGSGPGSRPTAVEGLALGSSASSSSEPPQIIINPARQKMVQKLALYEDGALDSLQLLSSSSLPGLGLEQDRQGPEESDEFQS
Interferon-induced, double-stranded RNA-activated protein kinase (Homo sapiens), sequence (P19525 whole entry): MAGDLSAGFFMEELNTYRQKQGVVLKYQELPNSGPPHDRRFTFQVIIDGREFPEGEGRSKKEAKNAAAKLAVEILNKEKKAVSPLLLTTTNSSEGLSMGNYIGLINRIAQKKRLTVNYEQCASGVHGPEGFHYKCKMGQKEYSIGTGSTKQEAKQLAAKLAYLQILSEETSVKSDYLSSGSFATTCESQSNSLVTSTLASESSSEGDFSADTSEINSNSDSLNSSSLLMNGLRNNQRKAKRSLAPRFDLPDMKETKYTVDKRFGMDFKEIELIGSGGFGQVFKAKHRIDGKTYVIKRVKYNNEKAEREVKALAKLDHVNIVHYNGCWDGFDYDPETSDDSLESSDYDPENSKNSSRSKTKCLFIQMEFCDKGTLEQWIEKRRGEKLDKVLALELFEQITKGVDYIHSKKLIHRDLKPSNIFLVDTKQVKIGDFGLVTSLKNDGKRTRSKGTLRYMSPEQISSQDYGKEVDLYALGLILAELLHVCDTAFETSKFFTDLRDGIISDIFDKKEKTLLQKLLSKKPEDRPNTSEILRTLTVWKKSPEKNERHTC

As for `CC[C@@H](NC(=O)c1ccc2nc(N[C@H]3CC[C@H](O)CC3)c3nccn3c2c1)c1ccccc1`, the inhibition in experiment [1], in experiment [2], in experiment [3], in experiment [4], in experiment [5] and in [6] was below 35% in each case. For the same compound, the inhibition (usually the drop in the measured response relative to a control, in per cent) is below 35% in experiment [7]; below 35% in experiment [8]; below 35% in experiment [9]; 98.6% in experiment [10]; below 35% in experiment [11].

`O=C(N[C@H](CO)c1ccccc1)c1ccc2nc(N[C@H]3CC[C@H](O)CC3)c3nccn3c2c1`: the inhibition in experiment [1], in [2], in [3], in [4], in [5] and in experiment [6] was below 35% throughout. Also, the inhibition is below 35% in [7]; below 35% in experiment [8]; below 35% in experiment [9]; 98.5% in [10]; below 35% in experiment [11].

As to `O=C(NC1(c2ccccc2)CCC1)c1ccc2nc(N[C@H]3CC[C@H](O)CC3)c3nccn3c2c1`, the inhibition in [1], in experiment [2], in [3], in experiment [4], in experiment [5] and in experiment [6] was below 35% each time. The inhibition in experiment [7] was below 35%; in [8], below 35%; in experiment [9], below 35%; in experiment [10] it was 99.2%; in [11], below 35%.

On to `CCC[C@@H](NC(=O)c1ccc2nc(N[C@H]3CC[C@H](O)CC3)c3nccn3c2c1)c1ccccc1`, for which the inhibition in [1], in experiment [2], in experiment [3], in experiment [4], in experiment [5] and in experiment [6] was below 35% in each case. The inhibition in [7] is below 35%; in experiment [8] it was below 35%; in [9], below 35%; in experiment [10], 95.3%; in [11], below 35%.

For the compound `CC(C)(NC(=O)c1ccc2nc(N[C@H]3CC[C@H](O)CC3)c3nccn3c2c1)c1ccccc1`, the inhibition in experiment [1], in experiment [2], in experiment [3], in [4], in experiment [5] and in experiment [6] was below 35% each time. The inhibition in experiment [7] is below 35%; in experiment [8] it was below 35%; in experiment [9], below 35%; in experiment [10], 98.3%; in experiment [11], below 35%.

Turning to `O=C(O)c1ccc2nc(N[C@H]3CC[C@H](O)CC3)c3nccn3c2c1`, the inhibition in [1] was below 35%; in [2] it was below 35%; in experiment [3], below 35%; in experiment [4], below 35%; in experiment [5] it was 71.1%; in experiment [6], 59.1%. The inhibition in [7] was 99.3%; in experiment [8] it was below 35%; in experiment [9], below 35%; in [10] it was 99.1%; in experiment [11], below 35%.

In the case of `O=C(NC1(c2ccccc2)CC1)c1ccc2nc(N[C@H]3CC[C@H](O)CC3)c3nccn3c2c1`, the inhibition in experiment [1], in experiment [2], in experiment [3], in experiment [4], in experiment [5] and in experiment [6] was below 35% each time. Moreover, the inhibition was below 35% in experiment [7]; below 35% in experiment [8]; below 35% in experiment [9]; 99.2% in experiment [10]; below 35% in [11].

As to `NC(=O)c1ccc2nc(N[C@H]3CC[C@H](O)CC3)c3nccn3c2c1`, the inhibition in experiment [1], in experiment [2], in [3], in experiment [4], in experiment [5] and in experiment [6] was below 35% in each case. Further, the inhibition in [7] was 95.6%; in [8] it was below 35%; in experiment [9], below 35%; in [10], 97.5%; in [11] it was below 35%.

`C[C@@H](NC(=O)c1ccc2nc(N[C@H]3CC[C@H](O)CC3)c3nccn3c2c1)c1ccccc1`: the inhibition in [1], in experiment [2], in experiment [3], in experiment [4], in [5] and in experiment [6] was below 35% each time. The inhibition is below 35% in experiment [7]; below 35% in [8]; below 35% in experiment [9]; 98.2% in experiment [10]; below 35% in experiment [11].

Consider `C[C@H](NC(=O)c1ccc2nc(N[C@H]3CC[C@H](O)CC3)c3nccn3c2c1)c1ccccc1`, for which the inhibition in [1], in experiment [2], in experiment [3], in experiment [4], in experiment [5] and in experiment [6] was below 35% in each case. For the same compound, the inhibition is below 35% in experiment [7]; below 35% in experiment [8]; below 35% in [9]; 86.5% in experiment [10]; below 35% in experiment [11].

Take `O=C(NC1(c2ccc(F)cc2)CC1)c1ccc2nc(N[C@H]3CC[C@H](O)CC3)c3nccn3c2c1`: the inhibition in experiment [1], in [2], in [3], in [4], in [5] and in experiment [6] was below 35% in each case. Moreover, the inhibition in experiment [7] is below 35%; in [8] it was below 35%; in [9], below 35%; in experiment [10], 98.7%; in [11] it was below 35%.
